# In patent US20240173353A1, “UNIVERSAL CHIMERIC ANTIGEN RECEPTOR T-CELL AND APPLICATION THEREOF” (SHANGHAI IASO BIOTECHNOLOGY CO., LTD., priority 2021, published 2024):
# Experiments:
# CD19-UCART cells = experiment: CD107a release of CD19-UCART co-incubated with Raji, dynamic ponatinib concentration; format: cell-based, human
# Procedure: In this example, the inventors used the prepared CD19-UCART and Km-edited CD19-UCART cells in the experiments. […] The next day, the concentration was adjusted to 0, 50, 100 and 200 nM in the group of 200 nM pretreatment overnight, and the concentration was adjusted to 0, 100, 200 nM and 300 nM in the group of 500 nM pretreatment overnight. […] Two technical replicates were set for each group. After 4 hr of co-incubation, CD107a release in CD8 and CAR double-positive cells was detected.
# T cells = experiment: T cell activation by anti-CD3/CD28 DynaBeads, CD25/CD69/4-1BB expression by flow cytometry
# Text: The inventors pre-treated T cells with dasatinib or DMSO for 5 hr, then activated T cells with anti-CD3/CD28 DynaBeads for 24 hr, and then detected the expression of activation molecules CD25, CD69 and 4-1BB by flow cytometry.
# In order to verify the tolerance of the LCK-T316I mutation to the function of dasatinib, the inventors carried out experimental verification on the T cells with LCK edited with different sgRNA lengths prepared in Example 2.
# The inventors isolated CD3-positive T cells from human peripheral blood and divided them into eleven portions for processing, with 1e5 cells in each portion. One of these portions was not treated with dasatinib, anti-CD3/CD28 DynaBeads were not added to activate TCR, and this portion was as the initial control group; the other 10 portions of cells were pretreated with different concentrations of dasatinib for 4 hr, ten concentrations ranging from 0 nM to 50 nM were set, and then anti-CD3/CD28 DynaBeads were added to activate TCR signals overnight. On the second day, the expression of CD25, CD69 and 4-1BB activation signals was detected, and the activation of TCR signals was detected. Two replicates were set for each group of experiments.
# The inventors divided each of the three groups of edited cells into 6 sub-groups and cultured them in a flat-bottomed 96-well plate. Each sub-group contained two technical replicates, and each well contained 0.15×10^6 cells. […] Subsequently, the cells were cultured for 18 hr. The activated T cell surface marker molecule 4-1BB was detected by using the APC-labeled murine IgG monoclonal antibody, and the activated T cell surface marker molecule CD25 was detected by using the PE-labeled murine IgG monoclonal antibody, and the activated T cell surface marker CD69 was detected by FITC-labeled murine IgG monoclonal antibody.
# The inventors conducted research using two groups of T cells (CBE3 control group and Km edited group) in the above experiments. The experimental procedure is basically the same as the above-mentioned experiment (FIG. 32B). The two groups of edited cells were each divided into 7 sub-groups and cultured them in a flat-bottomed 96-well plate. Each sub-group contained two technical replicates, and each well contained 0.15×10^6 cells. […] Subsequently, the cells were cultured for 18 hr. The activated T cell surface marker molecule 4-1BB was detected by using the APC-labeled murine IgG monoclonal antibody, and the activated T cell surface marker molecule CD25 was detected by using the PE-labeled murine IgG monoclonal antibody, and the activated T cell surface marker CD69 was detected by FITC-labeled murine IgG monoclonal antibody.
# anti-BCMA-CAR-T cells = experiment: CD107a translocation of anti-BCMA-CAR-T cells co-incubated with target cells; format: cell-based, human; details: wild-type anti-BCMA CAR-T, adjusted to 0 nM
# NK cells = experiment: CD107a release of NK cells activated by K562; format: cell-based, human
# Procedure: The inventor used Miltenyi human NK sorting magnetic beads to separate NK cells from human peripheral blood, and used DAKEWE NK medium to culture and expand them in vitro. On Day 8, a population of NK cells with more than 95% having positive CD56 expression could be obtained. These NK cells were taken out and treated with 0 nM, 100 nM and 200 nM dasatinib respectively for 24 hr, and then divided into two groups, one of which was not activated, and the other group was stimulated with MHC-class I molecule-deficient K562 cells for 5 hr. Then, the CD107a release of NK cells were detected in both of them.
# The inventors isolated NK cells from human PBMCs, and then cultured and differentiated them in NK medium to obtain CD56-positive NK cells with a purity higher than 95%. The exploration of the threshold of NK activation with dasatinib was carried out with seven concentrations in the range of 0-50 nM, namely 0, 10, 20, 25, 30, 40 and 50 nM, and the treatment was carried out overnight. The next day, the cells were resuspended with NK medium and activated with K562. Lymphocyte activator was used as a positive control for activation, and a part of NK cells that were not activated by K562 were also kept. Two replicates were set for each group. anti-CD107a antibody and monensin were added while carrying out activation, and after co-incubation for 6 hr, the CD107a release of CD56-positive NK cells was detected by flow cytometry.
# The inventors isolated NK cells from human PBMCs, and then cultured and differentiated them in NK medium to obtain CD56-positive NK cells with a purity higher than 95%. Three pretreatments were done respectively (1) absence of dasatinib pretreatment; (2) pretreatment with […] pretreatment with 50 nM dasatinib, and the cells were cultured overnight. The next day, the concentration of dasatinib was reduced, and the concentration was adjusted to 0, 7.5, 12.5, 17.5 and 25 nM respectively. […] Two replicates were set for each group.
# In order to repeatedly verify that the inhibition of NK cell activation function by dasatinib has an extended effect, the inventors repeated the above experiment. […] After 4 hr of co-incubation, CD107a release from CD56 positive NK cells was detected.
# The inventors used CD3-negative cells in human PBMCs, which contained more than 5% of CD56-positive NK cells. […] The next day, the cells were resuspended with NK medium and activated with K562. Lymphocyte activator was used as a positive control for activation, and a part of NK cells that were not activated by K562 were also kept. Two replicates were set for each group. anti-CD107a antibody and monensin were added while carrying out activation, and after co-incubation for 6 hr, the CD107a release of CD56-positive NK cells was detected by flow cytometry.
# The inventors isolated NK cells from human PBMCs, and then cultured and differentiated them in NK medium to obtain CD56-positive NK cells with a purity higher than 95%. […] Two replicates were set for each group.
# [1] = CBE3 control group, 200 nM ponatinib
# [2] = Km edited group, 500 nM ponatinib
# [3] = Km group (30% T316I), 200 nM ponatinib
# [4] = Sg12 control group, 200 nM ponatinib
# [5] = second experiment, Km group, 200 nM ponatinib
compound,measurement,setting,value
Cc1ccc(C(=O)Nc2ccc(CN3CCN(C)CC3)c(C(F)(F)F)c2)cc1C#Cc1cnc2cccnn12 [ponatinib],concentration that shuts down activation of CD19-UCART with LCK-T316I mutation,CD19-UCART cells,500 nM
same,percentage of CD107a-positive cells,"CD19-UCART cells; CD19-UCART group, 200 nM pretreatment overnight, adjusted to 0 nM, Raji 4 hr",17.2%
same,percentage of CD107a-positive cells,"CD19-UCART cells; CD19-UCART group, 200 nM pretreatment, 50 nM",0.485%
same,percentage of CD107a-positive cells,"CD19-UCART cells; CD19-UCART group, 200 nM pretreatment, 200 nM, Raji 4 hr",0.735%
same,percentage of CD107a-positive cells,"CD19-UCART cells; CD19-UCART group, 500 nM pretreatment, 300 nM",0.495%
same,percentage of CD107a-positive cells,"CD19-UCART cells; CD19-UCART group, 500 nM pretreatment, adjusted to 0 nM",1.73%
same,percentage of CD107a-positive cells,"CD19-UCART cells; Km-edited CD19-UCART group, 200 nM pretreatment, 200 nM",5.12%
same,percentage of CD107a-positive cells,"CD19-UCART cells; Km-edited CD19-UCART group, 200 nM pretreatment, adjusted to 0 nM",16.6%
same,percentage of CD107a-positive cells,"CD19-UCART cells; Km-edited CD19-UCART group, 500 nM pretreatment, 300 nM",1.47%
same,percentage of CD107a-positive cells,"CD19-UCART cells; Km-edited CD19-UCART group, 500 nM pretreatment, adjusted to 0 nM",11.15%
same,number of cells (survival of T cells),T cells; 1000 nM ponatinib,significantly reduced
same,CD25 and 4-1BB double-positive cells,T cells; [1],1.00%
same,CD25 and CD69 double-positive cells,T cells; [1],5.59%
same,CD25 and 4-1BB double-positive cells,T cells; [2],2.42%
same,CD25 and CD69 double-positive cells,T cells; [2],6.75%
same,CD25 and 4-1BB double-positive cells,T cells; [3],24.1%
same,CD25 and CD69 double-positive cells,T cells; [3],17.7%
same,CD25 and 4-1BB double-positive cells,T cells; [4],1.85%
same,CD25 and CD69 double-positive cells,T cells; [4],5.31%
same,concentration that effectively inhibits activation of T cells,T cells; in vitro,200 nM
same,cells expressing CD25 and 4-1BB,T cells; [5],19.71%
same,cells expressing CD25 and CD69,T cells; [5],23.9%
same,percentage of CD107a positive cells,"anti-BCMA-CAR-T cells; 200 nM ponatinib pretreatment, RPMI-8226 4 hr",about 16%
same,percentage of CD107a positive cells,anti-BCMA-CAR-T cells; 500 nM pretreatment,about 3%
same,release of CD107a,"NK cells; NK cells, highest ponatinib pretreatment (200 nM), lowered to 0 nM, K562",above 38%
same,concentration that effectively inhibits NK cell activation in vitro,NK cells; ponatinib,200 nM
